Measurements reported in ChEMBL document CHEMBL5252559, “Altersteroids A-D, 9,11-Secosteroid-Derived γ-Lactones from an Alternaria sp” (J Nat Prod, 2023).

Tests used:
A549 [1] = assay: Induction of apoptosis in human A549 cells assessed as caspase 3/7 positive cells at 100 uM incubated for 48 hrs by […] staining and caspase 3/7 reagent based analysis relative to control; assay type: functional
A549 [2] = assay: Induction of apoptosis in human A549 cells assessed as caspase 3/7 positive cells at 31.6 uM incubated for 48 hrs by […] staining and caspase 3/7 reagent based analysis relative to control; assay type: functional
[3] = Induction of caspase3/7-mediated apoptosis in human A549 cells assessed as increase in mean fluorescence intensity at 10 to 100 uM incubated for 48 hrs; assay type: functional; details: dose 10-100 µM
HCT-116 = assay: Cytotoxicity against human HCT-116 cells assessed as inhibition of cell growth incubated for 72 hrs by MTT assay; assay type: functional, cell-based; details: HCT-116, 72 h
A549 [4] = assay: Cytotoxicity against human A549 cells assessed as inhibition of cell growth incubated for 72 hrs by MTT assay; assay type: functional, cell-based; details: A549, 72 h
[5] = Cytotoxicity against cisplatin-resistant mouse MB49 cells assessed as inhibition of cell growth incubated for 72 hrs by MTT assay; assay type: functional, cell-based; details: MB49, 72 h
[6] = Cytotoxicity against cisplatin-sensitive mouse MB49 cells assessed as inhibition of cell growth incubated for 72 hrs by MTT assay; assay type: functional, cell-based; details: MB49, 72 h

SMILES	Activity (A549 [1])	Activity (A549 [2])	Activity [3]	IC50 (HCT-116)	IC50 (A549 [4])	IC50 [5]	IC50 [6]
CC(C)[C@@H](C)/C=C/[C@@H](C)[C@H]1CC[C@]2(C3=C[C@H](O)C4=C[C@@H](O)CC[C@]4(C)C3=O)OC(=O)C[C@]12C	81.9%	21.1%	2000	4.8 µM	5.3 µM	12.7 µM	12.7 µM
CC(C)[C@@H](C)/C=C/[C@@H](C)[C@H]1CC[C@]2(C3=C[C@H](O)[C@@H]4C[C@H](O)CC[C@]4(C)C3=O)OC(=O)C[C@]12C				14.6 µM	19.7 µM	14.2 µM	34.1 µM
CC(C)[C@@H](C)/C=C/[C@@H](C)[C@H]1CC[C@]2(C3=CC(=O)C4=CC(=O)CC[C@]4(C)C3=O)OC(=O)C[C@]12C				45 µM	54.3 µM	54.3 µM	53.6 µM
CC(C)[C@@H](C)/C=C/[C@@H](C)[C@H]1CC[C@]2(C3=CC(=O)[C@@H]4C[C@H](O)CC[C@]4(C)C3=O)OC(=O)C[C@]12C				57.8 µM	> 100 µM	> 100 µM	> 100 µM
